Test results reported in ChEMBL document CHEMBL5143558, “Synthesis of sorbicillinoid analogues with anti-inflammation activities” (Bioorg Med Chem, 2022).
Activity calls are given as the source filed them. The calls are words filed in the database; no cut-off is given here.

Columns and labels:
RAW264.7 [1] = test: Anti-inflammatory activity in mouse RAW264.7 cells assessed as inhibition of LPS-induced iNOS protein expression at 10 uM incubated for 24 hrs by Western blot analysis; assay type: functional, cell-based
[2] = Toxicity in mouse RAW264.7 cells assessed as reduction in cell vaibility at 10 uM; assay type: cell-based; settings: raw264.7, 10 µM
RAW264.7 [3] = test: Anti-inflammatory activity in mouse RAW264.7 cells assessed as inhibition of LPS-induced NO production at 10 uM; assay type: functional, cell-based
[4] = Toxicity in mouse RAW264.7 cells assessed as reduction in cell vaibility at 20 uM incubated for 24 hrs; assay type: cell-based; settings: raw264.7, 24 h
RAW264.7 [5] = test: Anti-inflammatory activity in mouse RAW264.7 cells assessed as inhibition of LPS-induced NO production at 1 to 20 uM incubated for 24 hrs; assay type: functional, cell-based; settings: dose 1-20 µM, DDE = dose-dependent effect
RAW264.7 [6] = test: Anti-inflammatory activity in mouse RAW264.7 cells assessed as inhibition of LPS-induced iNOS protein expression at 1 to 20 uM incubated for 24 hrs by Western blot analysis; assay type: functional, cell-based; settings: dose 1-20 µM, DDE = dose-dependent effect
RAW264.7 [7] = test: Anti-inflammatory activity in mouse RAW264.7 cells assessed as inhibition of LPS-induced NO production at 20 uM; assay type: functional, cell-based
RAW264.7 [8] = test: Anti-inflammatory activity in mouse RAW264.7 cells assessed as inhibition of LPS-induced p-NFkappaB protein expression at 10 uM incubated for 24 hrs by Western blot analysis; assay type: functional, cell-based

SMILES: C/C=C/C(=O)c1cc(C)c(O)cc1O
- inhibition (RAW264.7 [1]): Active
- Activity [2]: Non-Toxic
- inhibition (RAW264.7 [3]): Active

SMILES: COc1cc(OC)c(C(=O)/C=C/c2ccc(F)cc2)cc1C
- inhibition (RAW264.7 [1]): Active
- Activity [2]: Non-Toxic
- inhibition (RAW264.7 [3]): Active

SMILES: C/C=C/C(=O)c1cc(C)c(OC)cc1OC
- inhibition (RAW264.7 [1]): Active
- Activity [2]: Non-Toxic
- inhibition (RAW264.7 [3]): Active

SMILES: COc1cc(OC)c(C(=O)/C=C/c2ccccc2)cc1C
- inhibition (RAW264.7 [1]): Active
- Activity [2]: Non-Toxic
- inhibition (RAW264.7 [3]): Active

SMILES: COc1ccc(/C=C/C(=O)c2cc(C)c(O)c(C)c2O)cc1
- inhibition (RAW264.7 [1]): Active
- Activity [2]: Non-Toxic
- inhibition (RAW264.7 [3]): Active

SMILES: C/C=C/C(=O)Oc1c(C)cc(C(=O)/C=C/C)c(O)c1C
- inhibition (RAW264.7 [1]): Active
- Activity [2]: Non-Toxic
- inhibition (RAW264.7 [3]): Active

SMILES: Cc1cc(C(=O)/C=C/c2ccc3c(c2)OCO3)c(O)c(C)c1O
- inhibition (RAW264.7 [1]): Active
- Activity [2]: Non-Toxic

SMILES: Cc1ccc(OC(=O)/C=C/c2ccc(Cl)cc2)c(C)c1OC(=O)/C=C/c1ccc(Cl)cc1
- inhibition (RAW264.7 [1]): Active
- Activity [2]: Non-Toxic
- inhibition (RAW264.7 [3]): Active

SMILES: CC(C)=CC(=O)Oc1c(C)cc(C(=O)C=C(C)C)c(O)c1C
- inhibition (RAW264.7 [1]): Active
- Activity [2]: Non-Toxic
- inhibition (RAW264.7 [3]): Active

SMILES: C/C=C/C(=O)c1cc(C)c(OC)c(C)c1OC
- inhibition (RAW264.7 [1]): Active
- Activity [2]: Non-Toxic
- inhibition (RAW264.7 [3]): Active

SMILES: Cc1ccc(/C=C/C(=O)c2cc(C)c(O)c(C)c2O)cc1
- inhibition (RAW264.7 [1]): Active
- Activity [2]: Non-Toxic
- inhibition (RAW264.7 [3]): Active

SMILES: COc1cc(/C=C/C(=O)c2cc(C)c(O)c(C)c2O)cc(OC)c1OC
- inhibition (RAW264.7 [1]): Active
- Activity [4]: Non-Toxic
- inhibition (RAW264.7 [5]): Dde
- Activity [2]: Non-Toxic
- inhibition (RAW264.7 [3]): Active
- inhibition (RAW264.7 [6]): Dde

SMILES: COc1cc(OC)c(C(=O)/C=C/c2cc(OC)c(OC)c(OC)c2)cc1C
- inhibition (RAW264.7 [1]): Active
- Activity [2]: Non-Toxic
- inhibition (RAW264.7 [3]): Active

SMILES: Cc1cc(C(=O)/C=C/c2ccc(F)cc2)c(O)c(C)c1OC(=O)/C=C/c1ccc(F)cc1
- inhibition (RAW264.7 [1]): Active
- Activity [2]: Non-Toxic

SMILES: COc1cc(O)c(C(=O)/C=C/c2ccc(F)cc2)cc1C
- inhibition (RAW264.7 [1]): Active
- Activity [2]: Non-Toxic
- inhibition (RAW264.7 [3]): Active

SMILES: COc1cc(/C=C/C(=O)CC(=O)/C=C/c2ccc(O)c(OC)c2)ccc1O
- inhibition (RAW264.7 [7]): Active

SMILES: COc1ccc(/C=C/C(=O)c2cc(C)c(OC)cc2OC)cc1
- Activity [2]: Non-Toxic

SMILES: C/C=C/C=C/C(=O)Oc1ccc(C)c(OC(=O)/C=C/C=C/C)c1C
- Activity [2]: Non-Toxic

SMILES: C[C@]12CCC(=O)C=C1CC[C@@H]1[C@@H]2[C@@H](O)C[C@@]2(C)[C@H]1CC[C@]2(O)C(=O)CO
- inhibition (RAW264.7 [7]): Active

SMILES: Cc1cc(C(=O)/C=C/c2ccccc2)c(O)c(C)c1O
- inhibition (RAW264.7 [1]): Active
- Activity [2]: Non-Toxic
- inhibition (RAW264.7 [3]): Active
- inhibition (RAW264.7 [8]): Active

SMILES: COc1cc(/C=C/C(=O)c2cc(C)c(OC)c(C)c2OC)cc(OC)c1OC
- inhibition (RAW264.7 [1]): Active
- Activity [2]: Non-Toxic
- inhibition (RAW264.7 [3]): Active

SMILES: C/C=C/C=C/C(=O)c1cc(C)c(O)c(C)c1O
- Activity [2]: Non-Toxic
- inhibition (RAW264.7 [3]): Active
- inhibition (RAW264.7 [8]): Active

SMILES: CC(C)=CC(=O)Oc1ccc(C)c(OC(=O)C=C(C)C)c1C
- Activity [2]: Non-Toxic
- inhibition (RAW264.7 [8]): Active

SMILES: Cc1cc(C(=O)/C=C/c2ccc(F)cc2)c(O)cc1O
- inhibition (RAW264.7 [1]): Active
- Activity [2]: Non-Toxic
- inhibition (RAW264.7 [3]): Active

SMILES: Cc1cc(C(=O)/C=C/c2ccccc2)c(O)cc1O
- inhibition (RAW264.7 [1]): Active
- Activity [2]: Non-Toxic
- inhibition (RAW264.7 [3]): Active

SMILES: Cc1cc(C(=O)/C=C/c2ccc(F)cc2)c(O)c(C)c1O
- inhibition (RAW264.7 [1]): Active
- Activity [4]: Non-Toxic
- inhibition (RAW264.7 [5]): Dde
- Activity [2]: Non-Toxic
- inhibition (RAW264.7 [3]): Active
- inhibition (RAW264.7 [6]): Dde

SMILES: C/C=C/C(=O)c1cc(C)c(O)c(C)c1O
- inhibition (RAW264.7 [1]): Active
- Activity [2]: Non-Toxic
- inhibition (RAW264.7 [3]): Active

SMILES: Cc1cc(C(=O)CCc2ccccc2)c(O)c(C)c1O
- Activity [2]: Non-Toxic
- inhibition (RAW264.7 [8]): Active

SMILES: C/C=C/C=C/C(=O)Oc1c(C)cc(C(=O)/C=C/C=C/C)c(O)c1C
- inhibition (RAW264.7 [1]): Active
- Activity [2]: Non-Toxic
- inhibition (RAW264.7 [3]): Active

SMILES: Cc1cc(C(=O)/C=C/c2ccc(Cl)cc2)c(O)c(C)c1OC(=O)/C=C/c1ccc(Cl)cc1
- inhibition (RAW264.7 [1]): Active
- Activity [2]: Non-Toxic

SMILES: COc1cc(O)c(C(=O)/C=C/c2ccccc2)cc1C
- inhibition (RAW264.7 [1]): Active
- Activity [2]: Non-Toxic
- inhibition (RAW264.7 [3]): Active
